{
  "source": "ChEMBL document CHEMBL1201862",
  "about": "“PubChem BioAssay data set” (2004)",
  "key": {"[1]": {"assay": "loss of viability in HepG2 cells – cell-based, CellTiter-Glo, cherry-picked, cytotoxicity control for Shn3 inhibitor project, dose response (AID 624134)", "assay_type": "functional"}, "[2]": {"assay": "reduction of Shn3 3'UTR-driven luciferase in osteoblasts – cell-based, Clone20 osteoblasts, firefly luciferase, cherry-picked, dose response (AID 624132)", "assay_type": "functional"}, "HEK293 [3]": {"system": "HEK293", "assay": "cells", "assay_type": "functional, cell-based", "settings": "Homo sapiens"}, "[4]": {"assay": "Trypanosoma cruzi growth suppression in host cells – NIH3T3 host cells, beta-gal luminescence, confirmation (AID 2044);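 note: intracellular parasites grown in NIH/3T3 mouse fibroblasts as host cells; luminescent beta-galactosidase reporter signal from transgenic T. cruzi replicating inside host cells; inhibitors lower the luminescence signal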", "assay_type": "functional, cell-based"}, "[5]": {"assay": "NIH3T3 cell viability loss – ATP luminescence, mouse fibroblasts, counter-screen, dose response (AID 2010);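 note: cells exposed to compound for about 90 hours before reading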", "assay_type": "functional, cell-based"}, "HEK293 [6]": {"system": "HEK293", "assay": "inhibition of NOD1-driven NF-kB reporter – cell-based, luminescence, uHTS, primary screen (AID 1578)", "assay_type": "functional", "settings": "Homo sapiens"}, "[7]": {"molecular_target": "FAD-linked sulfhydryl oxidase ALR (Homo sapiens, UniProt P55789)", "sequence (P55789 whole entry)": "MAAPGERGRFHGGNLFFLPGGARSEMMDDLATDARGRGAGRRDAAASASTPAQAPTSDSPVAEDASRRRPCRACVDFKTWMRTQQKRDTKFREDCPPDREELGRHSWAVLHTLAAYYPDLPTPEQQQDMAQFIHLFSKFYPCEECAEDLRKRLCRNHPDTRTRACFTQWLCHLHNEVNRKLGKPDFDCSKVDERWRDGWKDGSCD", "assay": "ALR-catalysed DTT oxidation blockers – biochemical, H2O2 detection, luminescence, cherry-pick, dose response (AID 493248)"}, "HEK293 [8]": {"system": "HEK293", "assay": "cells", "assay_type": "functional, cell-based", "settings": "Homo sapiens", "remark": "listed apart in the source"}, "[9]": {"molecular_target": "Heat shock protein HSP 90-alpha (Homo sapiens, UniProt P07900)", "assay_type": "functional, organism-based"}, "[10]": {"assay": "THP-1 cell cytotoxicity, dose response, cytotoxicity control for non-replicating M. tuberculosis project (AID 489025)", "assay_type": "functional"}, "[11]": {"assay": "HepG2 cell cytotoxicity, dose response, cytotoxicity control for non-replicating M. tuberculosis project (AID 489018)", "assay_type": "functional", "settings": "Mycobacterium tuberculosis"}, "HEK293 [12]": {"system": "HEK293", "assay": "NOD2 signaling inhibitors in MDP-stimulated cells, cell-based, uHTS, luminescence (AID 2001)", "assay_type": "functional", "settings": "Homo sapiens"}, "INS1": {"system": "INS1", "assay": "INS-1E survival protection against cytokine death – cell-based, luminescence, retest, dose response (AID 449756);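 note: cell death triggered by IL-1 beta plus TNF-alpha plus IFN-gamma mixture; protective hits raise ATP signal compared with cytokine alone wells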", "assay_type": "functional", "settings": "Rattus norvegicus"}, "[13]": {"assay": "non-specific 3'UTR reporter inhibition in Clone20-Shn3RL – cell-based, Renilla luciferase, cherry-picked, counter-screen for Shn3 inhibitor project, dose response (AID 624133)", "assay_type": "functional"}, "[14]": {"assay": "DRD fibroblast viability loss – cell-based, non-viral oncogenic, luminescence, dose response (AID 1934)", "assay_type": "functional", "settings": "Homo sapiens"}, "BJ [15]": {"system": "BJ", "assay": "BJ-TERT fibroblast viability loss – cell-based, RAS-independent, luminescence, dose response (AID 1933)", "assay_type": "functional", "settings": "Homo sapiens"}, "[16]": {"molecular_target": "Nucleotide-binding oligomerization domain-containing protein 2 (Homo sapiens, UniProt Q9HC29)", "sequence (Q9HC29 whole entry, the tested form may be a part)": "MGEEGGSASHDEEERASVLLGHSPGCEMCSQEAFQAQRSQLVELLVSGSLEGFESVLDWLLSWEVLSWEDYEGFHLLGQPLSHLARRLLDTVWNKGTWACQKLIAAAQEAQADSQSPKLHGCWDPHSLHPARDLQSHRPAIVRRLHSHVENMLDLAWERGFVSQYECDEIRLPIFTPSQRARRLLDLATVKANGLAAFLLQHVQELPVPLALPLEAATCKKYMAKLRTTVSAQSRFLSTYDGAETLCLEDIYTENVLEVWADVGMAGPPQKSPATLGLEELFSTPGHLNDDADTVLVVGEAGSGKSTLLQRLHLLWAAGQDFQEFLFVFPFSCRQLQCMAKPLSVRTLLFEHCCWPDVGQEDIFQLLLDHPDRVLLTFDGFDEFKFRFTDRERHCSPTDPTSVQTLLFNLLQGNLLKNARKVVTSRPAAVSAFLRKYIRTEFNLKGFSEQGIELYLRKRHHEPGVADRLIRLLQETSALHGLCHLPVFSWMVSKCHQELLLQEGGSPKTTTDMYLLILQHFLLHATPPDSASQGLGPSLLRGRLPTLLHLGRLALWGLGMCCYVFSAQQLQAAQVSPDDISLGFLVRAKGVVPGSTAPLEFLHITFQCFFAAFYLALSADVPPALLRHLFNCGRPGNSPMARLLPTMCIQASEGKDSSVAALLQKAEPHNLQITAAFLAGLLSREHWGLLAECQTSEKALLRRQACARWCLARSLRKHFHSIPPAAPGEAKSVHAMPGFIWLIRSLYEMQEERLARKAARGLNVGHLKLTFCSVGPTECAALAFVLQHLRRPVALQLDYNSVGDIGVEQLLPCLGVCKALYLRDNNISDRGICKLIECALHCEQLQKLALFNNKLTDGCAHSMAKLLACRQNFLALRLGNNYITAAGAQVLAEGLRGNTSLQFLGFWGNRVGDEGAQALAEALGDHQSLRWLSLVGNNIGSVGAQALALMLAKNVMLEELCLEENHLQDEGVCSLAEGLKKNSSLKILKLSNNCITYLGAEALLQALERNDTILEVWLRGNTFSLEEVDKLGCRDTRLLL", "assay": "inhibition of NOD2-driven NF-kB reporter – cell-based, luminescence, uHTS, HEK293 (AID 1566)", "assay_type": "functional"}, "HEK293 [17]": {"system": "HEK293", "assay": "cells", "assay_type": "functional, cell-based", "settings": "Homo sapiens", "remark": "listed apart in the source"}, "[18]": {"assay": "Vero E6 cell cytotoxicity, dose response, cytotoxicity control for non-replicating M. tuberculosis project, secondary assay (AID 492998)", "assay_type": "functional, VeroE6", "settings": "Vero C1008"}, "[19]": {"assay": "viability of HCT116 lacking mutant beta-catenin – cell-based, human colon tumor, dose response (AID 1045);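 note: HCT116 colon tumor cells with beta catenin knocked out; cells exposed to compound for 60 hours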", "assay_type": "functional"}, "BJ [20]": {"system": "BJ", "assay": "cells", "assay_type": "functional, cell-based", "settings": "Homo sapiens"}, "BJ [21]": {"system": "BJ", "assay": "BJ-TERT-LT-ST fibroblast viability loss – cell-based, RAS-independent, luminescence, dose response (AID 1935);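 note: BJ fibroblasts immortalized with TERT plus LT and ST oncogenes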", "assay_type": "functional", "settings": "Homo sapiens"}, "[22]": {"assay": "viability of PTEN-deleted HCT116 cells – cell-based, HCT116 PTEN knockout, dose response (AID 1047);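 note: HCT116 colon tumor cells with PTEN knocked out; cells exposed to compound for 60 hours before readout; potency for loss of cell viability measured by luminescence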", "assay_type": "functional"}, "cells": {"assay": "cells", "assay_type": "functional"}, "Caspase-7": {"molecular_target": "Caspase-7 (Homo sapiens, UniProt P55210)", "sequence (P55210 24-198 limits assumed)": "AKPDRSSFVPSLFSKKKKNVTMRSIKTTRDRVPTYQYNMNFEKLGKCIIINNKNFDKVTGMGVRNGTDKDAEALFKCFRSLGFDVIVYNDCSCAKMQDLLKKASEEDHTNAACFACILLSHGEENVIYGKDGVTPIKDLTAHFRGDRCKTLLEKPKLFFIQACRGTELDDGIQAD", "sequence (P55210 207-303 limits assumed)": "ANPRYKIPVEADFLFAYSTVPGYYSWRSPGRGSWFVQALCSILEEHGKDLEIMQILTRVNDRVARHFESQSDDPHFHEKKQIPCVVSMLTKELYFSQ", "assay": "activation of caspase-7 zymogen – biochemical, absorbance, counter-screen for procaspase-3 activator project, dose response (AID 489013)"}, "Caspase-3": {"molecular_target": "T1, Caspase-3 (Homo sapiens, UniProt P42574)", "T1 sequence (P42574 whole entry)": "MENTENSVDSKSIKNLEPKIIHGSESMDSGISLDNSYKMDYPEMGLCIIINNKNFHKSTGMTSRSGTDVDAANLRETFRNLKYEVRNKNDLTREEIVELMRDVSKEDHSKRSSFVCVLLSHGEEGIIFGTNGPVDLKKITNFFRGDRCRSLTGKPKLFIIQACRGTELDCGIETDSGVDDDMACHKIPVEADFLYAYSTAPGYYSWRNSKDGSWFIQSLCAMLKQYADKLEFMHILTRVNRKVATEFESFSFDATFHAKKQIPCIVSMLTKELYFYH", "assay": "activation of caspase-3 zymogen – biochemical, absorbance, dose response (AID 489014)"}, "[23]": {"molecular_target": "T2, Kappa-type opioid receptor (Homo sapiens, UniProt P41145)", "T2 sequence (P41145 whole entry)": "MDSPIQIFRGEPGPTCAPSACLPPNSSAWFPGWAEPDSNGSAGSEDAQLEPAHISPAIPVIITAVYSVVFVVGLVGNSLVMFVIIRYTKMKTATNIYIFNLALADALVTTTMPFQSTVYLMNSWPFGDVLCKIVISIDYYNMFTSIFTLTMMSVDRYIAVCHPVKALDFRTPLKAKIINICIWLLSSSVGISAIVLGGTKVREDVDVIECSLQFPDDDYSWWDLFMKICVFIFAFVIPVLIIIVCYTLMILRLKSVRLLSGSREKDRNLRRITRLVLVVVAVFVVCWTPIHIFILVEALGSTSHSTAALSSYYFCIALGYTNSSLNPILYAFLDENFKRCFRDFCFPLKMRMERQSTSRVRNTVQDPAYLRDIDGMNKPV", "assay": "SAR analysis of Antagonists of the Kappa Opioid Receptor (KOR) using an Image-Based Assay - Set 4. [Related pubchem assays (depositor defined):AID1777, AID1785]", "assay_type": "functional"}, "Mu-type opioid receptor": {"molecular_target": "Mu-type opioid receptor (Homo sapiens, UniProt P35372)", "sequence (P35372 whole entry)": "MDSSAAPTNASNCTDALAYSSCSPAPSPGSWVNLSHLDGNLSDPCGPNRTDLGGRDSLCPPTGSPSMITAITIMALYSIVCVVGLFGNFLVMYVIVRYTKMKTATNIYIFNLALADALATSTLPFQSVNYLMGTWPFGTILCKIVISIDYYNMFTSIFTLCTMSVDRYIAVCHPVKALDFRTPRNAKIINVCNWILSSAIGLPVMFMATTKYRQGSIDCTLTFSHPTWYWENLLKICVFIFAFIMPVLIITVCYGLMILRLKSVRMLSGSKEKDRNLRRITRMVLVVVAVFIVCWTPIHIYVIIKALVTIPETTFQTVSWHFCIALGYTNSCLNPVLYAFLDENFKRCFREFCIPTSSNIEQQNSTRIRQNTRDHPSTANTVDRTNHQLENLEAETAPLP", "assay": "SAR Analysis of Antagonists of the MOR Receptor using an Image-Based Assay - Set 3. [Related pubchem assays (depositor defined):AID1777, AID1785, AID1786, AID1966, AID2133, AID2136, AID2284, AID2285, AID2420]", "assay_type": "functional"}, "[24]": {"molecular_target": "T2, Kappa-type opioid receptor", "assay": "SAR analysis of small molecule antagonists of the kappa opioid receptor via a luminescent beta-arrestin assay - Set 3. [Related pubchem assays (depositor defined):AID1777, AID1778, AID1785, AID1786, AID1966, AID2133, AID2136, AID2285, AID2495]", "assay_type": "functional"}, "[25]": {"molecular_target": "Delta-type opioid receptor (Homo sapiens, UniProt P41143)", "sequence (P41143 whole entry)": "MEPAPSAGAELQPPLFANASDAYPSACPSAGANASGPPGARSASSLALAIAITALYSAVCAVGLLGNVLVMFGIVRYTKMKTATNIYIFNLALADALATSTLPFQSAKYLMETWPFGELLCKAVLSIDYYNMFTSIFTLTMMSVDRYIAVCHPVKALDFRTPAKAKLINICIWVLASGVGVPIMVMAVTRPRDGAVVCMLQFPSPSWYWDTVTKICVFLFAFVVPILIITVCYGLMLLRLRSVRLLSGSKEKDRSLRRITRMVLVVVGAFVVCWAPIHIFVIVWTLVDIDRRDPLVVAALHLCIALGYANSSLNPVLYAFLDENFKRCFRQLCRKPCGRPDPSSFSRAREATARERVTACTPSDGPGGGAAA", "assay": "SAR Analysis of Antagonists of the DOR Receptor using an Image-Based Assay - Set 3. [Related pubchem assays (depositor defined):AID1777, AID1785]", "assay_type": "functional"}},
  "note": "Activity calls are given as the source filed them.",
  "data": [
    {"smiles": "O=S1(=O)C=C(Sc2nnc(-c3ccccc3)o2)c2ccccc21", "values": [
      {"measurement": "AC50", "setting": "[1]", "result": "8.89 µM (active)"},
      {"measurement": "AC50", "setting": "[2]", "result": "1.7 µM (active)"},
      {"measurement": "IC50", "setting": "HEK293 [3]", "result": "> 20 µM (inactive)"},
      {"measurement": "EC50", "setting": "[4]", "result": "0.941 µM (active)"},
      {"measurement": "EC50", "setting": "[5]", "result": "2.33 µM (active)"},
      {"measurement": "EC50", "setting": "HEK293 [6]", "result": "> 20 µM (inactive)"},
      {"measurement": "AC50", "setting": "[7]", "result": "0.281 µM (active)"},
      {"measurement": "IC50", "setting": "HEK293 [8]", "result": "5.52 µM (active)"},
      {"measurement": "AC50", "setting": "[9]", "result": "2.9 µM (active)"},
      {"measurement": "CC50", "setting": "[10]", "result": "6.02 µM (active)"},
      {"measurement": "CC50", "setting": "[11]", "result": "18.5 µM (active)"},
      {"measurement": "IC50", "setting": "HEK293 [12]", "result": "6.48 µM (inactive)"},
      {"measurement": "AC50", "setting": "INS1", "result": "7.3 µM (active)"},
      {"measurement": "AC50", "setting": "[13]", "result": "4 µM (active)"},
      {"measurement": "EC50", "setting": "[14]", "result": "4.19 µM (active)"},
      {"measurement": "EC50", "setting": "BJ [15]", "result": "1.48 µM (active)"},
      {"measurement": "EC50", "setting": "[16]", "result": "> 20 µM (inactive)"},
      {"measurement": "IC50", "setting": "HEK293 [17]", "result": "> 20 µM (inactive)"},
      {"measurement": "CC50", "setting": "[18]", "result": "2.87 µM (active)"},
      {"measurement": "EC50", "setting": "[19]", "result": "2.8 µM (active)"},
      {"measurement": "EC50", "setting": "BJ [20]", "result": "7.16 µM (inconclusive)"},
      {"measurement": "EC50", "setting": "BJ [21]", "result": "2.8 µM (inconclusive)"},
      {"measurement": "EC50", "setting": "[22]", "result": "2.38 µM (active)"},
      {"measurement": "IC50", "setting": "cells", "result": "1.13 µM (active)"}
    ]},
    {"smiles": "Cc1ccc(C)c(N(CC(=O)Nc2ccc(-c3nc4ccc(C)cc4s3)cc2)S(C)(=O)=O)c1", "values": [
      {"measurement": "EC50", "setting": "[4]", "result": "2.78 µM (active)"},
      {"measurement": "EC50", "setting": "[5]", "result": "> 60 µM (inconclusive)"},
      {"measurement": "EC50", "setting": "Caspase-7", "result": "> 85.2 µM (inactive)"},
      {"measurement": "EC50", "setting": "Caspase-3", "result": "> 85.2 µM (inactive)"}
    ]},
    {"smiles": "Cc1ccc(N2CCN(CCCNC(=O)Cn3c(=O)c4cccn4c4c(C)ccnc43)CC2)cc1", "values": [
      {"measurement": "IC50", "setting": "[23]", "result": "2.28 µM (active)"},
      {"measurement": "IC50", "setting": "Mu-type opioid receptor", "result": "> 32 µM (inactive)"},
      {"measurement": "IC50", "setting": "[24]", "result": "0.875 µM (active)"},
      {"measurement": "IC50", "setting": "[25]", "result": "> 32 µM (inactive)"}
    ]}
  ]
}
